Consider 2 substances from US20210379158A1, “METHOD FOR PREVENTING OR TREATING HEART FAILURE BY ADMINISTERING A MEDICAMENT CONTAINING AN ANTAGONIST OF CORTICOTROPIN RELEASING HORMONE RECEPTOR 2 (CRHR2)” (RaQualia Pharma Inc., priority 2017, published 2021).

For series [1], the system named is Crhr2. The series can be described thus: Pressure overload-induced cardiac dysfunction (TAC) in mice, continuous infusion initiated 1 wk after TAC. The series is classed as in vivo, mouse. How it is done:
(§1) 8-10-week-old male mice were anesthetized with 50 mg/kg sodium pentobarbital, and osmotic minipumps (Alzet) containing Ucn2 (25, 50, 100 ng/g/day; Peptide Institute) or antisauvagine-30 (100 ng/g/day; Medical & Biological Laboratories) were implanted subcutaneously in the back for 4 wk.
TAC was performed under anesthesia and intubation. The chest was opened to visualize the aortic arch. The transverse aorta was then ligated between the right innominate and left common carotid arteries against a blunted 24-G needle with a 7-0 suture. The sham procedure was identical except that the aorta was not ligated.
(§2) Transthoracic echocardiography was performed on mice anesthetized with 50 mg/kg sodium pentobarbital. The left ventricular (LV) end-systolic diameter and the LV end-diastolic diameters were measured to calculate the % LV fractional shortening (% FS) in M-mode using an Acuson Sequoia C-512 (Siemens) with a 15-MHz probe. Systolic blood pressure (SBP) was measured by tail cuff method with an automatic sphygmomanometer (BP98A; Saffron) while the mice were restrained.
(§3) Mouse plasma Ucn2 and BNP were quantified by a mouse Ucn2 ELISA kit (Yanaihara), and by a BNP Enzyme Immunoassay kit (RayBiotech Inc.), respectively, according to the manufacturer's instructions.
Tissue samples were embedded in OCT compound (Sakura Finetek) and snap-frozen in liquid nitrogen. Left ventricular myocardium sections (6 μm slices) were stained with Picro-Sirius red with standard protocols and viewed with a BX51 microscope (Olympus). Cardiac fibrosis in 20 random images was quantified in ImageJ software.
We next investigated whether treatment with the Crhr2 antagonist, antisauvagine-30 (Rühmann et al., 1998, Proc. Natl. Acad. Sci. USA. 95:15264-15269), would attenuate the progression of established cardiac hypertrophy in mice. For this, continuous antisauvagine-30 infusion was initiated 1 wk after TAC surgery (FIG. 19).

The conditions of series [2]: acute intravenous injection; cited from earlier work.
The subject of series [3] is Crhr2. The experiment in a line: Continuous Ucn2 infusion through subcutaneous osmotic pump in mice for 4 wk. The series is classed as in vivo, mouse. How it is done: as §1, §2, §3
To examine the effect of long-term Ucn2 up-regulation in vivo, we implanted mice with osmotic pumps that release Ucn2.

Series [4] concerns Crhr2. The experiment in a line: Continuous Ucn2 infusion in cardiomyocyte-specific Crhr2 knockout mice and control mice. The series is classed as in vivo, mouse.
Source text: Crhr2^tm1a(KOMP)Wtsi mice on a C57BL/6 background were generated by the Knock Out Mice Program (KOMP) at the University of California Davis (Davis, Calif.) and Children's Hospital Oakland Research Institute (Oakland, Calif.). Crhr2^tm1a(KOMP)Wtsi mice were bred with mice expressing Flp recombinase to obtain Crhr2 conditional KO mice (Crhr2^flox/flox mice). Crhr2^flox/flox mice were backcrossed at least 10 times to wild-type C57BL/6 genetic background mice. Tamoxifen-inducible, cardiomyocyte-specific Crhr2 knockout mice (cmc-Crhr2-KOs) were generated by intercrossing the αMHC-CreERT2 line to Crhr2^flox/flox mice (Takefuji et al., 2012, Circulation. 126:1972-1982). Cre-mediated recombination of floxed alleles was induced with an intraperitoneal injection of 1 mg tamoxifen dissolved in 100 μl Miglyol for 5 consecutive days. Vehicle-treated mice received Miglyol only, and αMHC-CreERT2+/−-Crhr2^wt/wt mice were used as controls. Experiments were performed 2 wk after the end of induction.
as §1, §2
To examine the functional significance of Crhr2 in cardiomyocytes in vivo, we generated mice with tamoxifen-inducible cardiomyocyte-specific Crhr2 deficiency (cmc-Crhr2-KO) by mating αMHC-CreERT2 mice with Crhr2^flox/flox mice.

No end group written: not given here.

On to antisauvagine-30, for which the “plasma BNP” value in the series with Crhr2 [1] (TAC mice, 100 ng/g/day infusion from 1 wk after TAC, day 35, FIG. 22) was “strong reduction”. Besides, in the series with Crhr2 [1] (TAC mice, 100 ng/g/day infusion from 1 wk after TAC, day 35, FIG. 23), the “cardiac hypertrophy (left ventricular weight/tibia length ratio)” value was “strong reduction”. Also, the “cardiac fibrosis (fibrosis area)” value with Crhr2 [1] (TAC mice, 100 ng/g/day infusion from 1 wk after TAC, day 35, FIG. 24) is “strong reduction”. Moreover, the systolic blood pressure entry with Crhr2 [1] (TAC mice, 100 ng/g/day infusion from 1 wk after TAC, FIG. 20) is “without significantly affecting systolic blood pressure”. Further, in the series on Crhr2 [1] (TAC mice, 100 ng/g/day infusion from 1 wk after TAC, FIG. 21), the “cardiac output (left ventricular fractional shortening)” value is “protected mice from further deterioration of cardiac output”.
Regarding “urocortin 2 (VILSLDVPIGLLRILLEQARYKAARNQAATNAQILAHV; ends and bridges not checked; UniProt Q99ML8 73-110, looked up) [Ucn2, Ligand/agonist of Crhr2, obtained from Peptide Institute]”, the TAC-induced cardiac dysfunction result in the series with Crhr2 [1] (4 wk of sustained Ucn2 infusion initiating 1 wk after TAC surgery) is on record as “accelerated TAC-induced cardiac dysfunction”. In addition, in series [2], the cardiac contraction entry is “accelerate cardiac contraction”. In addition, the “left ventricular fractional shortening” value in the series on Crhr2 [3] (4 wk Ucn2 infusion 100 ng/g/day, FIG. 8) was “decrease in left ventricular fractional shortening”. In addition, the systolic blood pressure entry in the series on Crhr2 [3] (4 wk Ucn2 infusion 100 ng/g/day, FIG. 9) is “without significantly affecting systolic blood pressure”. Further, in the series on Crhr2 [3] (4 wk Ucn2 infusion 100 ng/g/day, FIG. 10), the “blood levels of brain natriuretic peptide (BNP)” value is listed as “significantly increased”. In addition, in the series on Crhr2 [3] (4 wk Ucn2 infusion 25, 50 or 100 ng/g/day, FIGS. 6 and 7), the “cardiac hypertrophy, left ventricular weight to tibia length ratio” value was “increased left ventricular weight to tibia length ratio in a dose-dependent manner”. For the same substance, in the series with Crhr2 [3] (after 4 wk of sustained Ucn2 infusion (25, 50 or 100 ng/g/day), osmotic pump, blood, FIG. 5), the “circulating Ucn2 levels” value is “elevated similar to those observed after TAC”. The fractional shortening decrease result in the series on Crhr2 [4] (cmc-Crhr2-KO mice, 4 wk of continuous Ucn2 infusion 100 ng/g/day, FIG. 13) is recorded as “significantly attenuated”. The “Ucn2-induced hypertrophic response (left ventricular weight/tibia length ratio)” value with Crhr2 [4] (cmc-Crhr2 KO mice, 4 wk Ucn2 100 ng/g/day, FIG. 12) is “failed to show a Ucn2-induced hypertrophic response”. The fractional shortening result in the series on Crhr2 [4] (control mice, 4 wk of continuous Ucn2 infusion 100 ng/g/day, FIG. 13) is recorded as “decreased fractional shortening”.
